From patent US9309191B2 (priority 2013, dated 2016)

System: Magnaporthe grisea
Type: in vivo
Conditions: rice (Nipponbare); for lesion area of treated plants relative to the lesion area in the non-treated plant: 200 ppm foliar spray, contact with affected seedlings for 6 days; for Lesion Area (%): Concentration 200 ppm foliar spray, table

Row | Structure (SMILES) | lesion area of treated plants relative to the lesion area in the non-treated plant [%] | Lesion Area (%)
1 | Cc1cc(OCC2CC2)c(C)cc1/N=C/N(C)C [1-17, N′-(4-cyclopropylmethoxy-2,5-dimethylphenyl)-N,N-dimethylformamidine] | ≤ 10 | 1-10%
2 | Cc1cc(OCC2CCCCC2)c(C)cc1N=CN(C)C [Compound 267, N′-(4-cyclohexylmethoxy-2,5-dimethylphenyl)-N,N-dimethylformamidine] | ≤ 50 | 31-50%
